Results on 8 compounds are retold here after patent US10106491B2, “Substituted biaryl alkyl amides” (BioTheryX, Inc., priority 2011, dated 2018).

In experiment [1] the test system is MDA-MB-468-NFkB-Luc2p cell line. Briefly: TNF-α induced NFkB reporter assay (luciferase). Format: cell-based. To be noted: 1 h before 10 ng/ml TNF-α for 6 h, FIG. 3; for result in TNF-α induced NFkB reporter assay: tested at 20 μM and 5 μM. How it is done: The effects of the compounds described herein on the activation of TNF-mediated pathways were assessed using an MDA-MB-468NFkB-Luc2p reporter cell line (FIG. 3). To construct this cell line, MDA-MB-468 cells were transfected with pGL4.32[luc2P/NF-kB-RE/Hygro] vector (Promega) using TransFast transfection reagent (Promega) according to manufacturer's standard protocol. Briefly, cells were grown in RPMI supplemented with 10% FBS and plated onto sterile 6-well plates (Nunc). When cells became ˜75% confluent, media in each well was removed and replaced with 1 mL RPMI (no FBS) containing […] vector and TransFast for 1 h at 37° C. 2 mL of RPMI with FBS is then added to the well and after 24 h, 500 ug/ml of hygromycin was added for selection to generate a stable reporter cell line.
Stable MDA-MB-468-NFkB-Luc2p cells were plated onto optical-bottom, white wall 96-well plates at 10,000 cells per well and allowed to attach overnight. Compounds B1 through B14 were added at 20 μM and 5 μM respectively for 1 h prior to treatment with 10 ng/ml of recombinant human TNF-α for 6 h. Luciferase signal was determined using the Luciferase Assay System (Promega) and a luminometer.
In general terms: Reporter assays use an easily measured gene product as a stand-in for the process of interest.

In experiment [2] the test system is SK-MEL-28 (metastatic melanoma) cell line. Put plainly: SK-MEL-28 proliferation assay (MTS, percent viability vs DMSO). Format: cell-based. To be noted: 72 h, FIG. 1. As for the experimental part:
(§1) Proliferation assays were conducted to assess the effects of the compounds described herein on the growth rate of neoplastic cells. For each of the proliferation assays described herein, SK-MEL-28, MDA-MB-468 or Panc-1 cells were grown in RPMI supplemented with 10% FBS and plated onto sterile 96-well tissue culture plates at 20,000 cells per well and allowed to attach overnight. Compounds B1 through B14 were added at 20 μM and 10 μM respectively in the SK-MEL-28 proliferation assay (FIG. 1). Compounds B3, B5, B7, B11 and B12 were added at 20 μM and 10 μM respectively for the MDA-MB-468 (FIG. 2A) and Panc-1 proliferation assays (FIG. 2B). Plates were incubated for 72 h (37° C., 5% CO2). Percent viability compared to DMSO control was determined using an MTS assay (CellTiter 96 Aqueous, Promega) according to the manufacturer's standard protocol. The standard used in the SK-MEL-28 assay is MG132, a proteasome inhibitor, at 10 uM concentration. It was used as a positive control for cell killing. All the assays are referenced to DMSO as the control at 100% proliferation.

The test system of experiment [3] is MDA-MB-468 (breast cancer) cell line. Briefly: MDA-MB-468 proliferation assay (MTS). Format: cell-based. To be noted: for growth rate: 72 h, DMSO control = 100%. As for the experimental part:
as §1

The test system of experiment [4] is Panc-1 (pancreatic cancer) cell line. Put plainly: Panc-1 proliferation assay (MTS). In kind it is cell-based. To be noted: for growth rate: 72 h, DMSO control = 100%. As for the experimental part: as §1
Experiment [5] concerns the target T1, hCdc34 (Homo sapiens, UniProt P49427).
T1 sequence (P49427 1-236): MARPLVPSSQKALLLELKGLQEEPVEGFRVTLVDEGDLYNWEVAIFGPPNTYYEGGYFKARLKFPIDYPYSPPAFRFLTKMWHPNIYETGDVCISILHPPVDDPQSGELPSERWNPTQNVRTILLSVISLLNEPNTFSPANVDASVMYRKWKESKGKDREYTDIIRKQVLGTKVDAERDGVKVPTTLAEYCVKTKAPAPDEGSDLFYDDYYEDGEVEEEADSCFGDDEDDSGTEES
To be noted: Ceccarelli et al., Cell 145:1075-1087, 2011; cited from earlier work.

Where [6] appears, read: SK-MEL-28, tested at 20 μM and 10 μM.

As for `CCOC(=O)C(O)C(O)C(Cc1ccc(-c2cc(Cl)cc(Cl)c2)cc1)NC(=O)[C@H]1CCCO1` (some centres unmarked) [Compound B4], the “result in TNF-α induced NFkB reporter assay” value (from here on “result”) in experiment [1] is reported as “good results”.
With `CCOC(=O)C(O)C(O)C(Cc1ccc(-c2cc(Cl)cc(Cl)c2)cc1)NC(=O)[C@H](C)N` (some centres unmarked) [Compound B12], in experiment [2] (SK-MEL-28, 20 μM), the “fold more effective than the control” value was “about 20 fold” and the “inhibitory effect on proliferation” value is “excellent inhibitory effect”. In experiment [3] (MDA-MB-468, 20 μM), this compound displayed a growth rate of 11.0%. Besides, the growth rate in experiment [4] (Panc-1, 20 μM) is listed as 24.4%. In addition, the “inhibitory effect on TNF-α induced NFkB luciferase signal” value in experiment [1] (20 μM) is listed as “excellent inhibitory effect”.
On to `CCOC(=O)C(O)C(O)C(Cc1ccc(-c2cc(Cl)cc(Cl)c2)cc1)NC(=O)CNC(=O)OC(C)(C)C` (centres unmarked) [Compound B7], for which, in experiment [2] (setting [6]), the “inhibitory effect on proliferation” value was “good inhibitory effect”.
Turning to `CCOCC(=O)NC(Cc1ccc(-c2cc(Cl)cc(Cl)c2)cc1)C(O)C(O)C(=O)OCC` (centres unmarked) [Compound B1], the “result” value in experiment [1] is “good results”.
For `CCOC(=O)C(O)C(O)C(Cc1ccc(-c2cc(Cl)cc(Cl)c2)cc1)NC(=O)CN` (centres unmarked) [Compound B11], the “inhibitory effect on proliferation” value in experiment [2] (setting [6]) is on record as “good inhibitory effect”.
In the case of `CCOC(=O)C(O)C(O)C(Cc1ccc(-c2cc(Cl)cc(Cl)c2)cc1)NC(=O)[C@@H]1CCCN1C(=O)OC(C)(C)C` (some centres unmarked) [Compound B5], the “inhibitory effect on proliferation” value in experiment [2] (setting [6]) is on record as “good inhibitory effect”. In experiment [3] (MDA-MB-468, 20 μM), this compound registered a growth rate of 33.5%. The “result” value in experiment [1] was “good results”.
In the case of `CCOC(=O)C(O)C(O)C(Cc1ccc(-c2cc(Cl)cc(Cl)c2)cc1)NC(=O)CCl` (centres unmarked) [Compound B3], the “inhibitory effect on proliferation” value in experiment [2] (setting [6]) is given as “good inhibitory effect”; in experiment [3] (MDA-MB-468, at both concentrations (20 μM and 10 μM)), “good inhibitory effect”; in experiment [4] (Panc-1, at both concentrations (20 μM and 10 μM)) it was “good inhibitory effect”. Further, the growth rate worked out at 6.0% in experiment [3] (MDA-MB-468, 10 μM); 5.5% in experiment [3] (MDA-MB-468, 20 μM); 4.8% in experiment [4] (Panc-1, 10 μM); 5.2% in experiment [4] (Panc-1, 20 μM).
Turning to `COCC(=O)N[C@@H](Cc1ccc(-c2cc(Cl)cc(Cl)c2)cc1)[C@H](O)[C@@H](O)C(=O)O` [CC0651], the “inhibition of hCdc34” value in experiment [5] is reported as “inhibits”.
